According to the supplement of paper PMC4862054:

How the values were obtained:
CAL-120 [1] = test: normalised viability (% of control), CellTiter-Blue; higher = more viable cells (100 = DMSO, 0 = benzethonium chloride kill control); details: incubation time: 72 h
Outline: (§1)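 Vehicle (100) and a positive kill control (0) anchored the normalisation of each plate, and Z'-factor was used for quality control. Breast cancer cell lines in 20 µl suspension were incubated 72 h over compound in 5 µl medium in 384-well plates, followed by CellTiter-Blue at 560/590 nm. The value is normalised viability at a single listed concentration of the series.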

CAL-148 [2] = test: as above; details: incubation time: 72 h
Outline: as §1

Hs578T [3] = test: as above; details: incubation time: 72 h
Outline: as §1

HDQ-P1 [4] = test: as above; details: incubation time: 72 h
Outline: as §1

MFM-223 [5] = test: as above; details: incubation time: 72 h
Outline: as §1

HCC1937 [6] = test: as above; details: incubation time: 72 h
Outline: as §1

CAL-120 [7] = test: drug sensitivity score (DSS), CellTiter-Blue viability (DSS (AUC-based score)); higher = stronger viability inhibition; extreme values may be limits of the assay; details: incubation time: 72 h
Procedure: (§2)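 DSRT with the CellTiter-Blue (resazurin reduction) viability readout, fluorescence 560/590 nm, 72 h incubation. Plates were normalised to DMSO and benzethonium chloride controls. DSS is computed from the area under the fitted dose-response curve (5 or 9 concentrations).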

BT-474 = test: as above; details: incubation time: 72 h
Procedure: as §2

MDA-MB-231 = test: as above; details: incubation time: 72 h
Procedure: as §2

MDA-MB-468 = test: as above; details: incubation time: 72 h
Procedure: as §2

CAL-148 [8] = test: as above; details: incubation time: 72 h
Procedure: as §2

MDA-MB-453 = test: as above; details: incubation time: 72 h
Procedure: as §2

CAL-85-1 = test: as above; details: incubation time: 72 h
Procedure: as §2

CAL-51 = test: as above; details: incubation time: 72 h
Procedure: as §2

HCC1143 = test: as above; details: incubation time: 72 h
Procedure: as §2

Hs578T [9] = test: as above; details: incubation time: 72 h
Procedure: as §2

HDQ-P1 [10] = test: as above; details: incubation time: 72 h
Procedure: as §2

BT-549 = test: as above; details: incubation time: 72 h
Procedure: as §2

MFM-223 [11] = test: as above; details: incubation time: 72 h
Procedure: as §2

MDA-MB-436 = test: as above; details: incubation time: 72 h
Procedure: as §2

SK-BR-3 [12] = test: as above; details: incubation time: 72 h
Procedure: as §2

DU-4475 = test: as above; details: incubation time: 72 h
Procedure: as §2

HCC1599 = test: as above; details: incubation time: 72 h
Procedure: as §2

HCC1937 [13] = test: as above; details: incubation time: 72 h
Procedure: as §2

SK-BR-3 [14] = details: 72 h
Outline: (§3)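 Rows with a drug sensitivity score of zero were dropped, and EC50 was taken from the fitted percent-inhibition dose-response curve, censored at the highest concentration. Data were normalised on each plate to vehicle and a positive kill control and checked by Z'-factor. The assay seeded breast cancer cell lines in 20 µl onto 384-well plates pre-loaded with compound in 5 µl medium for 72 h, then added 2.5 µl CellTiter-Blue for 2 h at 37 °C and read fluorescence at 560/590 nm.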

HCC1937 [15] = details: 72 h
Outline: as §3

CCc1cncnc1N1CCN(Cc2nc3ccc(C(F)(F)F)cc3[nH]2)CC1
normalised viability (CAL-120 [1]; 1 nM): 111% | normalised viability (CAL-148 [2]; 1 nM): 114% | normalised viability (Hs578T [3]; 1 nM): 106% | normalised viability (HDQ-P1 [4]; 1 nM): 106% | normalised viability (MFM-223 [5]; 1 nM): 103% | normalised viability (HCC1937 [6]; 1 nM): 86.6% | drug sensitivity score (CAL-120 [7]): 0 | drug sensitivity score (BT-474): 0 | drug sensitivity score (MDA-MB-231): 0 | drug sensitivity score (MDA-MB-468): 0 | drug sensitivity score (CAL-148 [8]): 0 | drug sensitivity score (MDA-MB-453): 0 | drug sensitivity score (CAL-85-1): 0 | drug sensitivity score (CAL-51): 0 | drug sensitivity score (HCC1143): 0 | drug sensitivity score (Hs578T [9]): 0 | drug sensitivity score (HDQ-P1 [10]): 0 | drug sensitivity score (BT-549): 0 | drug sensitivity score (MFM-223 [11]): 0 | drug sensitivity score (MDA-MB-436): 0 | drug sensitivity score (SK-BR-3 [12]): 0 | drug sensitivity score (DU-4475): 0 | drug sensitivity score (HCC1599): 0 | drug sensitivity score (HCC1937 [13]): 0

Cc1cnc(NC(=O)Nc2cc(Br)c(C)cc2OC[C@@H]2CNCCO2)cn1
normalised viability (CAL-120 [1]; 0.1 nM): 98.6% | normalised viability (CAL-148 [2]; 0.1 nM): 99.8% | normalised viability (Hs578T [3]; 0.1 nM): 106% | normalised viability (HDQ-P1 [4]; 0.1 nM): 84.2% | normalised viability (MFM-223 [5]; 0.1 nM): 102% | normalised viability (HCC1937 [6]; 0.1 nM): 93.6% | EC50, CellTiter-Blue viability (SK-BR-3 [14]): 0.715 µM | EC50, CellTiter-Blue viability (HCC1937 [15]): 0.121 µM | drug sensitivity score (CAL-120 [7]): 0 | drug sensitivity score (BT-474): 0 | drug sensitivity score (MDA-MB-231): 0 | drug sensitivity score (MDA-MB-468): 0 | drug sensitivity score (CAL-148 [8]): 0 | drug sensitivity score (MDA-MB-453): 0 | drug sensitivity score (CAL-85-1): 0 | drug sensitivity score (CAL-51): 0 | drug sensitivity score (HCC1143): 0 | drug sensitivity score (Hs578T [9]): 1.59 | drug sensitivity score (HDQ-P1 [10]): 0 | drug sensitivity score (BT-549): 0 | drug sensitivity score (MFM-223 [11]): 0 | drug sensitivity score (MDA-MB-436): 3.49 | drug sensitivity score (SK-BR-3 [12]): 1.9 | drug sensitivity score (DU-4475): 0 | drug sensitivity score (HCC1599): 2.32 | drug sensitivity score (HCC1937 [13]): 5.26

NCCCNCCSP(=O)(O)O [Amifostine]
normalised viability (CAL-120 [1]; 1 nM): 73.3% | normalised viability (CAL-148 [2]; 1 nM): 103% | normalised viability (Hs578T [3]; 1 nM): 107% | normalised viability (HDQ-P1 [4]; 1 nM): 98.3% | normalised viability (MFM-223 [5]; 1 nM): 76.4% | normalised viability (HCC1937 [6]; 1 nM): 91.8% | drug sensitivity score (CAL-120 [7]): 0 | drug sensitivity score (BT-474): 0 | drug sensitivity score (MDA-MB-231): 0 | drug sensitivity score (MDA-MB-468): 0 | drug sensitivity score (CAL-148 [8]): 0 | drug sensitivity score (MDA-MB-453): 0 | drug sensitivity score (CAL-85-1): 0 | drug sensitivity score (CAL-51): 0 | drug sensitivity score (HCC1143): 0 | drug sensitivity score (Hs578T [9]): 0 | drug sensitivity score (HDQ-P1 [10]): 0 | drug sensitivity score (BT-549): 0 | drug sensitivity score (MFM-223 [11]): 0 | drug sensitivity score (MDA-MB-436): 0 | drug sensitivity score (SK-BR-3 [12]): 0 | drug sensitivity score (DU-4475): 0 | drug sensitivity score (HCC1599): 3.86 | drug sensitivity score (HCC1937 [13]): 0

O=C(O)C1(C(=O)O)CCC1.[NH2-].[NH2-].[Pt+2] [Carboplatin]
normalised viability (CAL-120 [1]; 1 nM): 84.1% | normalised viability (CAL-148 [2]; 1 nM): 96.9% | normalised viability (Hs578T [3]; 1 nM): 125% | normalised viability (HDQ-P1 [4]; 1 nM): 109% | normalised viability (MFM-223 [5]; 1 nM): 96.6% | normalised viability (HCC1937 [6]; 1 nM): 80.9% | drug sensitivity score (CAL-120 [7]): 0 | drug sensitivity score (BT-474): 0 | drug sensitivity score (MDA-MB-231): 0 | drug sensitivity score (MDA-MB-468): 0 | drug sensitivity score (CAL-148 [8]): 2.02 | drug sensitivity score (MDA-MB-453): 1.79 | drug sensitivity score (CAL-85-1): 0 | drug sensitivity score (CAL-51): 1.03 | drug sensitivity score (HCC1143): 0 | drug sensitivity score (Hs578T [9]): 0 | drug sensitivity score (HDQ-P1 [10]): 0 | drug sensitivity score (BT-549): 0 | drug sensitivity score (MFM-223 [11]): 1.39 | drug sensitivity score (MDA-MB-436): 0 | drug sensitivity score (SK-BR-3 [12]): 0 | drug sensitivity score (DU-4475): 0 | drug sensitivity score (HCC1599): 0 | drug sensitivity score (HCC1937 [13]): 0

COc1cc2c(Oc3ccc4[nH]c(C)cc4c3F)ncnc2cc1OCCCN1CCCC1 [Cediranib]
normalised viability (CAL-120 [1]; 0.1 nM): 112% | normalised viability (CAL-148 [2]; 0.1 nM): 109% | normalised viability (Hs578T [3]; 0.1 nM): 92% | normalised viability (HDQ-P1 [4]; 0.1 nM): 81.1% | normalised viability (MFM-223 [5]; 0.1 nM): 101% | normalised viability (HCC1937 [6]; 0.1 nM): 113% | drug sensitivity score (CAL-120 [7]): 0 | drug sensitivity score (BT-474): 0 | drug sensitivity score (MDA-MB-231): 0 | drug sensitivity score (MDA-MB-468): 0 | drug sensitivity score (CAL-148 [8]): 0 | drug sensitivity score (MDA-MB-453): 0 | drug sensitivity score (CAL-85-1): 0 | drug sensitivity score (CAL-51): 0 | drug sensitivity score (HCC1143): 0 | drug sensitivity score (Hs578T [9]): 0 | drug sensitivity score (HDQ-P1 [10]): 0 | drug sensitivity score (BT-549): 0 | drug sensitivity score (MFM-223 [11]): 0 | drug sensitivity score (MDA-MB-436): 0 | drug sensitivity score (SK-BR-3 [12]): 0 | drug sensitivity score (DU-4475): 0 | drug sensitivity score (HCC1599): 0 | drug sensitivity score (HCC1937 [13]): 0

Cc1ccc(-c2cc(C(F)(F)F)nn2-c2ccc(S(N)(=O)=O)cc2)cc1 [Celecoxib]
normalised viability (CAL-120 [1]; 1 nM): 78.3% | normalised viability (CAL-148 [2]; 1 nM): 95.4% | normalised viability (Hs578T [3]; 1 nM): 111% | normalised viability (HDQ-P1 [4]; 1 nM): 114% | normalised viability (MFM-223 [5]; 1 nM): 98.5% | normalised viability (HCC1937 [6]; 1 nM): 96.7% | EC50, CellTiter-Blue viability (HCC1937 [15]): 0.329 µM | drug sensitivity score (CAL-120 [7]): 0 | drug sensitivity score (BT-474): 0 | drug sensitivity score (MDA-MB-231): 0 | drug sensitivity score (MDA-MB-468): 0 | drug sensitivity score (CAL-148 [8]): 0 | drug sensitivity score (MDA-MB-453): 1.65 | drug sensitivity score (CAL-85-1): 0 | drug sensitivity score (CAL-51): 0 | drug sensitivity score (HCC1143): 0 | drug sensitivity score (Hs578T [9]): 0 | drug sensitivity score (HDQ-P1 [10]): 4.34 | drug sensitivity score (BT-549): 0 | drug sensitivity score (MFM-223 [11]): 0 | drug sensitivity score (MDA-MB-436): 3.91 | drug sensitivity score (SK-BR-3 [12]): 0 | drug sensitivity score (DU-4475): 0 | drug sensitivity score (HCC1599): 0 | drug sensitivity score (HCC1937 [13]): 2.89

N#Cc1ccc(C(c2ccc(C#N)cc2)n2cncn2)cc1 [Letrozole]
normalised viability (CAL-120 [1]; 1 nM): 74.3% | normalised viability (CAL-148 [2]; 1 nM): 107% | normalised viability (Hs578T [3]; 1 nM): 94.5% | normalised viability (HDQ-P1 [4]; 1 nM): 90.9% | normalised viability (MFM-223 [5]; 1 nM): 49.6% | normalised viability (HCC1937 [6]; 1 nM): 97.8% | EC50, CellTiter-Blue viability (HCC1937 [15]): > 10 µM | drug sensitivity score (CAL-120 [7]): 0 | drug sensitivity score (BT-474): 0 | drug sensitivity score (MDA-MB-231): 0 | drug sensitivity score (MDA-MB-468): 0 | drug sensitivity score (CAL-148 [8]): 0 | drug sensitivity score (MDA-MB-453): 0 | drug sensitivity score (CAL-85-1): 0 | drug sensitivity score (CAL-51): 0 | drug sensitivity score (HCC1143): 0 | drug sensitivity score (Hs578T [9]): 0 | drug sensitivity score (HDQ-P1 [10]): 0 | drug sensitivity score (BT-549): 0 | drug sensitivity score (MFM-223 [11]): 0 | drug sensitivity score (MDA-MB-436): 0 | drug sensitivity score (SK-BR-3 [12]): 0 | drug sensitivity score (DU-4475): 0 | drug sensitivity score (HCC1599): 3.7 | drug sensitivity score (HCC1937 [13]): 1.74
